Reference: article PMC10648598, “Physiologic and Transcriptomic Effects Triggered by Overexpression of Wild Type and Mutant DNA Topoisomerase I in Streptococcus pneumoniae” (International Journal of Molecular Sciences, 2023)

Biological target: T1, TopoI (TopoIWT) (Streptococcus pneumoniae, UniProt Q8DPI9)
T1 construct: gene topA
Assay: biochemical

T1 sequence (Q8DPI9 1-701): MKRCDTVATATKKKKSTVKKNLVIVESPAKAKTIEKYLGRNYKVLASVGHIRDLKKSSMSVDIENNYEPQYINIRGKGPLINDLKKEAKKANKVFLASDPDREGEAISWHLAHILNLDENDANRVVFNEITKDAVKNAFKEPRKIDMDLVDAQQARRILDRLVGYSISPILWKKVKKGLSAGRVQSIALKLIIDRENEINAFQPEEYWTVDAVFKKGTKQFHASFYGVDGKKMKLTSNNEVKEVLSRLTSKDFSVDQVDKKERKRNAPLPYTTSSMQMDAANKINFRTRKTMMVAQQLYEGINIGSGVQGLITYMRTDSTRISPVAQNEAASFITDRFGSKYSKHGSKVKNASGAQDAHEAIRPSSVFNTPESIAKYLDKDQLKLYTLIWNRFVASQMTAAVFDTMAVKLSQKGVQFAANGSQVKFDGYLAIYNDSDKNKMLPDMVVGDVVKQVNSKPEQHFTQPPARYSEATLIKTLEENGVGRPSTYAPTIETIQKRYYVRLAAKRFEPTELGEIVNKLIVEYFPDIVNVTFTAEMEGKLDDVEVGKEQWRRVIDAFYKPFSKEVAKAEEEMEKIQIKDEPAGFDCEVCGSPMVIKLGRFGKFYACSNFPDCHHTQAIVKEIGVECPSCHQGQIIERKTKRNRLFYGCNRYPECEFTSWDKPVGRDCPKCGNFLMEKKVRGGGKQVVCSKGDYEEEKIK

## CNCCc1cc2c(c3c1ccc1cc4c(cc13)OCO4)OCO2 [SCN, Seconeolitsine]
  IC50: 6.8 ± 2 µM
